Results taken from PubChem BioAssay (NCI).
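Cells were grown in 96-well plates and exposed to each compound for 48 hours at five concentrations; endpoints were interpolated linearly between bracketing concentrations, or set to the highest concentration if not reached. TGI denotes the concentration required for complete inhibition of growth.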

Tests used:
Assay in all cases: growth of human tumour cells (NCI), 48 h
786-0 renal = test system: 786-0 renal
A498 renal = test system: A498 renal
A549 NSCLC = test system: A549 NSCLC
ACHN renal = test system: ACHN renal
BT-549 breast = test system: BT-549 breast
CAKI-1 renal = test system: CAKI-1 renal
CCRF-CEM leukemia = test system: CCRF-CEM leukemia
COLO 205 colon = test system: COLO 205 colon
DU-145 prostate = test system: DU-145 prostate
EKVX NSCLC = test system: EKVX NSCLC
HCC-2998 colon = test system: HCC-2998 colon
HCT-116 colon = test system: HCT-116 colon
HCT-15 colon = test system: HCT-15 colon
HL-60(TB) leukemia = test system: HL-60(TB) leukemia
HOP-62 NSCLC = test system: HOP-62 NSCLC
HOP-92 NSCLC = test system: HOP-92 NSCLC
HS 578T breast = test system: HS 578T breast
HT29 colon = test system: HT29 colon
IGROV1 ovarian = test system: IGROV1 ovarian
K-562 leukemia = test system: K-562 leukemia
KM12 colon = test system: KM12 colon
LOX IMVI melanoma = test system: LOX IMVI melanoma
M14 melanoma = test system: M14 melanoma
MALME-3M melanoma = test system: MALME-3M melanoma
MCF7 breast = test system: MCF7 breast
MDA-MB-231 breast = test system: MDA-MB-231 breast
MDA-MB-435 = test system: MDA-MB-435
MDA-N = test system: MDA-N
MOLT-4 leukemia = test system: MOLT-4 leukemia
NCI-H226 lung = test system: NCI-H226 lung
NCI-H23 lung = test system: NCI-H23 lung
NCI-H460 lung = test system: NCI-H460 lung
NCI-H522 lung = test system: NCI-H522 lung
NCI/ADR-RES ovarian = test system: NCI/ADR-RES ovarian
OVCAR-3 ovarian = test system: OVCAR-3 ovarian
OVCAR-4 ovarian = test system: OVCAR-4 ovarian
OVCAR-5 ovarian = test system: OVCAR-5 ovarian
OVCAR-8 ovarian = test system: OVCAR-8 ovarian
PC-3 prostate = test system: PC-3 prostate
RPMI-8226 leukemia = test system: RPMI-8226 leukemia
RXF 393 renal = test system: RXF 393 renal
SF-268 CNS = test system: SF-268 CNS
SF-295 CNS = test system: SF-295 CNS
SF-539 CNS = test system: SF-539 CNS
SK-MEL-2 melanoma = test system: SK-MEL-2 melanoma
SK-MEL-28 melanoma = test system: SK-MEL-28 melanoma
SK-MEL-5 melanoma = test system: SK-MEL-5 melanoma
SK-OV-3 ovarian = test system: SK-OV-3 ovarian
SN12C renal = test system: SN12C renal
SNB-19 CNS = test system: SNB-19 CNS
SNB-75 CNS = test system: SNB-75 CNS
SR leukemia = test system: SR leukemia
SW-620 colon = test system: SW-620 colon
T-47D breast = test system: T-47D breast
TK-10 renal = test system: TK-10 renal
U251 CNS = test system: U251 CNS
UACC-257 melanoma = test system: UACC-257 melanoma
UACC-62 melanoma = test system: UACC-62 melanoma
UO-31 renal = test system: UO-31 renal

## C/C(=N/NC(=S)Nc1ccccc1Cl)c1ccccn1
786-0 renal
  TGI: 15.8 µM
A498 renal
  TGI: 9.31 µM
A549 NSCLC
  TGI: 29.6 µM
ACHN renal
  TGI: 8.59 µM
BT-549 breast
  TGI: 19.9 µM
CAKI-1 renal
  TGI: 19.7 µM
CCRF-CEM leukemia
  TGI: 1.1 µM
COLO 205 colon
  TGI: 2.54 µM
DU-145 prostate
  TGI: 12.8 µM
EKVX NSCLC
  TGI: 7.15 µM
HCC-2998 colon
  TGI: 18.1 µM
HCT-116 colon
  TGI: 14.2 µM
HCT-15 colon
  TGI: 18 µM
HL-60(TB) leukemia
  TGI: < 0.0305 µM
HOP-62 NSCLC
  TGI: 12.4 µM
HOP-92 NSCLC
  TGI: 22.7 µM
HS 578T breast
  TGI: 40.2 µM
HT29 colon
  TGI: 24.7 µM
IGROV1 ovarian
  TGI: 13.9 µM
K-562 leukemia
  TGI: 3.25 µM
KM12 colon
  TGI: 18.7 µM
LOX IMVI melanoma
  TGI: 16 µM
M14 melanoma
  TGI: 3.42 µM
MALME-3M melanoma
  TGI: 13 µM
MCF7 breast
  TGI: 0.27 µM
MDA-MB-231 breast
  TGI: 17.3 µM
MDA-MB-435
  TGI: 17.1 µM
MDA-N
  TGI: 19.7 µM
MOLT-4 leukemia
  TGI: 3.62 µM
NCI-H226 lung
  TGI: 1.65 µM
NCI-H23 lung
  TGI: 32.8 µM
NCI-H460 lung
  TGI: 9.85 µM
NCI-H522 lung
  TGI: 8.19 µM
NCI/ADR-RES ovarian
  TGI: 6.53 µM
OVCAR-3 ovarian
  TGI: 10.9 µM
OVCAR-4 ovarian
  TGI: 14.5 µM
OVCAR-5 ovarian
  TGI: 5.26 µM
OVCAR-8 ovarian
  TGI: 9.18 µM
PC-3 prostate
  TGI: 27.3 µM
RPMI-8226 leukemia
  TGI: 47.3 µM
RXF 393 renal
  TGI: 11.6 µM
SF-268 CNS
  TGI: 34.6 µM
SF-295 CNS
  TGI: 9.57 µM
SF-539 CNS
  TGI: 7.56 µM
SK-MEL-2 melanoma
  TGI: 9.47 µM
SK-MEL-28 melanoma
  TGI: 23 µM
SK-MEL-5 melanoma
  TGI: 8.67 µM
SK-OV-3 ovarian
  TGI: 13.7 µM
SN12C renal
  TGI: 8.4 µM
SNB-19 CNS
  TGI: 48.5 µM
SNB-75 CNS
  TGI: 30.5 µM
SR leukemia
  TGI: 3.22 µM
SW-620 colon
  TGI: 29.9 µM
T-47D breast
  TGI: 6.82 µM
TK-10 renal
  TGI: 17.1 µM
U251 CNS
  TGI: 15.3 µM
UACC-257 melanoma
  TGI: 1.07 µM
UACC-62 melanoma
  TGI: 7.49 µM
UO-31 renal
  TGI: 12.3 µM

## CN1CCCN2CCN(C)CCN(CC1)CC2
786-0 renal
  TGI: > 100 µM
A498 renal
  TGI: > 100 µM
A549 NSCLC
  TGI: > 100 µM
ACHN renal
  TGI: > 100 µM
BT-549 breast
  TGI: > 100 µM
CAKI-1 renal
  TGI: > 100 µM
CCRF-CEM leukemia
  TGI: > 100 µM
COLO 205 colon
  TGI: > 100 µM
DU-145 prostate
  TGI: > 100 µM
EKVX NSCLC
  TGI: > 100 µM
HCC-2998 colon
  TGI: > 100 µM
HCT-116 colon
  TGI: > 100 µM
HCT-15 colon
  TGI: > 100 µM
HL-60(TB) leukemia
  TGI: > 100 µM
HOP-62 NSCLC
  TGI: > 100 µM
HOP-92 NSCLC
  TGI: > 100 µM
HS 578T breast
  TGI: > 100 µM
HT29 colon
  TGI: > 100 µM
IGROV1 ovarian
  TGI: > 100 µM
K-562 leukemia
  TGI: > 100 µM
KM12 colon
  TGI: > 100 µM
LOX IMVI melanoma
  TGI: > 100 µM
M14 melanoma
  TGI: > 100 µM
MALME-3M melanoma
  TGI: > 100 µM
MCF7 breast
  TGI: > 100 µM
MDA-MB-231 breast
  TGI: > 100 µM
MDA-MB-435
  TGI: > 100 µM
MDA-N
  TGI: > 100 µM
MOLT-4 leukemia
  TGI: > 100 µM
NCI-H23 lung
  TGI: > 100 µM
NCI-H460 lung
  TGI: > 100 µM
NCI-H522 lung
  TGI: > 100 µM
NCI/ADR-RES ovarian
  TGI: > 100 µM
OVCAR-3 ovarian
  TGI: > 100 µM
OVCAR-4 ovarian
  TGI: > 100 µM
OVCAR-5 ovarian
  TGI: > 100 µM
OVCAR-8 ovarian
  TGI: > 100 µM
PC-3 prostate
  TGI: > 100 µM
RPMI-8226 leukemia
  TGI: > 100 µM
RXF 393 renal
  TGI: > 100 µM
SF-268 CNS
  TGI: > 100 µM
SF-295 CNS
  TGI: > 100 µM
SF-539 CNS
  TGI: > 100 µM
SK-MEL-2 melanoma
  TGI: > 100 µM
SK-MEL-28 melanoma
  TGI: > 100 µM
SK-MEL-5 melanoma
  TGI: > 100 µM
SK-OV-3 ovarian
  TGI: > 100 µM
SN12C renal
  TGI: > 100 µM
SNB-19 CNS
  TGI: > 100 µM
SNB-75 CNS
  TGI: > 100 µM
SR leukemia
  TGI: > 100 µM
SW-620 colon
  TGI: > 100 µM
T-47D breast
  TGI: > 100 µM
TK-10 renal
  TGI: > 100 µM
U251 CNS
  TGI: > 100 µM
UACC-257 melanoma
  TGI: > 100 µM
UACC-62 melanoma
  TGI: > 100 µM
UO-31 renal
  TGI: > 100 µM

## C[Si](C)(C)C#CCO[Si](C)(C)C
786-0 renal
  TGI: > 78.8 µM
A498 renal
  TGI: > 100 µM
A549 NSCLC
  TGI: > 100 µM
ACHN renal
  TGI: > 100 µM
BT-549 breast
  TGI: > 100 µM
CAKI-1 renal
  TGI: > 100 µM
CCRF-CEM leukemia
  TGI: > 64 µM
COLO 205 colon
  TGI: > 100 µM
DU-145 prostate
  TGI: > 100 µM
EKVX NSCLC
  TGI: > 100 µM
HCC-2998 colon
  TGI: > 100 µM
HCT-116 colon
  TGI: > 100 µM
HCT-15 colon
  TGI: > 100 µM
HL-60(TB) leukemia
  TGI: > 61 µM
HOP-62 NSCLC
  TGI: > 100 µM
HOP-92 NSCLC
  TGI: 44.3 µM
HS 578T breast
  TGI: > 100 µM
HT29 colon
  TGI: > 100 µM
IGROV1 ovarian
  TGI: 36.8 µM
K-562 leukemia
  TGI: > 100 µM
KM12 colon
  TGI: > 89.3 µM
LOX IMVI melanoma
  TGI: 19.9 µM
M14 melanoma
  TGI: > 100 µM
MALME-3M melanoma
  TGI: > 100 µM
MCF7 breast
  TGI: > 100 µM
MDA-MB-231 breast
  TGI: > 92.6 µM
MDA-MB-435
  TGI: > 100 µM
MDA-N
  TGI: > 100 µM
MOLT-4 leukemia
  TGI: 58.4 µM
NCI-H226 lung
  TGI: > 100 µM
NCI-H23 lung
  TGI: > 100 µM
NCI-H460 lung
  TGI: > 100 µM
NCI-H522 lung
  TGI: 29.9 µM
NCI/ADR-RES ovarian
  TGI: > 100 µM
OVCAR-3 ovarian
  TGI: > 100 µM
OVCAR-4 ovarian
  TGI: > 100 µM
OVCAR-5 ovarian
  TGI: > 100 µM
OVCAR-8 ovarian
  TGI: > 100 µM
PC-3 prostate
  TGI: > 100 µM
RPMI-8226 leukemia
  TGI: > 79.8 µM
RXF 393 renal
  TGI: > 100 µM
SF-268 CNS
  TGI: > 89.3 µM
SF-295 CNS
  TGI: > 100 µM
SF-539 CNS
  TGI: 52.3 µM
SK-MEL-2 melanoma
  TGI: > 100 µM
SK-MEL-28 melanoma
  TGI: > 100 µM
SK-MEL-5 melanoma
  TGI: > 100 µM
SK-OV-3 ovarian
  TGI: > 100 µM
SN12C renal
  TGI: > 100 µM
SNB-19 CNS
  TGI: > 100 µM
SNB-75 CNS
  TGI: > 100 µM
SR leukemia
  TGI: > 61.5 µM
SW-620 colon
  TGI: > 100 µM
T-47D breast
  TGI: > 100 µM
TK-10 renal
  TGI: > 100 µM
U251 CNS
  TGI: > 100 µM
UACC-257 melanoma
  TGI: > 100 µM
UACC-62 melanoma
  TGI: > 100 µM
UO-31 renal
  TGI: > 100 µM
